Here are results for 43 compounds from ChEMBL document CHEMBL4342421, “Current scenario of tetrazole hybrids for antibacterial activity” (Eur J Med Chem, 2019).

What all share (assay type): functional
Test [1] concerns Escherichia coli. Description: Antimicrobial activity against Escherichia coli.
Test [2] concerns Bacillus subtilis. Nature of the test: Antimicrobial activity against Bacillus subtilis.
For test [3], the system named is Pseudomonas aeruginosa. Description: Antimicrobial activity against Pseudomonas aeruginosa.
Test [4] has as its system Staphylococcus aureus. Nature of the test: Antimicrobial activity against Staphylococcus aureus.
Test [5] relates to Candida albicans. Nature of the test: Antifungal activity against Candida albicans.
Test [6] concerns Aspergillus niger. Description: Antifungal activity against Aspergillus niger.
For test [7], the system named is Staphylococcus aureus. Description: Antimicrobial activity against Staphylococcus aureus assessed as zone of inhibition at 250 ug/ml. The settings on record: read-out: IZ.
Test [8] relates to Bacillus cereus. Nature of the test: Antimicrobial activity against Bacillus cereus assessed as zone of inhibition at 250 ug/ml. The settings on record: read-out: IZ.
In test [9] the test system is Escherichia coli. Description: Antimicrobial activity against Escherichia coli assessed as zone of inhibition at 250 ug/ml. The settings on record: read-out: IZ.
In test [10] the test system is Pseudomonas aeruginosa. Description: Antimicrobial activity against Pseudomonas aeruginosa assessed as zone of inhibition at 250 ug/ml. As to conditions: read-out: IZ.
The test system of test [11] is Candida albicans. Description: Antifungal activity against Candida albicans assessed as zone of inhibition at 250 ug/ml. The settings on record: read-out: IZ.
Test [12] has as its system Aspergillus niger. Nature of the test: Antifungal activity against Aspergillus niger assessed as zone of inhibition at 250 ug/ml. As to conditions: read-out: IZ.

≈ marks a conversion by molar mass, not a printed value.

Take `O=C1S/C(=C\c2ccccc2)C(=O)N1Cc1ccc(-c2ccccc2-c2nnn[nH]2)cc1`: the MIC in [1] and in test [2] was 7.75 to 35.4 µg/mL (≈ 17.6 to 80.6 µM) each time.

Regarding `Cc1ccc2cc(C3CC(c4ccc(Cl)cc4)=NN3C(N)=S)c3nnnn3c2c1` (stereo not drawn), the MIC in test [1], in [3], in test [4], in test [5] and in [6] was 3.12 to 100 µg/mL (≈ 7.41 to 237 µM) each time.

As for `COc1ccc(/C=C2\SC(=O)N(Cc3ccc(-c4ccccc4-c4nnn[nH]4)cc3)C2=O)c(OC)c1`, the MIC in test [1] and in test [2] was 7.75 to 35.4 µg/mL (≈ 15.5 to 70.9 µM) throughout.

In the case of `O=c1c(OCc2nnn[nH]2)c(-c2ccc(F)cc2)oc2cc(Cl)ccc12`, the MIC in test [1], in test [3], in [4] and in test [2] was 50 to 400 µg/mL (≈ 134 to 1070 µM) in each case.

With `Cc1ccc2cc(/C=C/C(=O)c3cccs3)c3nnnn3c2c1`, the MIC in [1], in test [3], in [4], in test [5] and in test [6] was 6.25 to 100 µg/mL (≈ 19.5 to 312 µM) throughout.

As to `c1cc(-c2nnn[nH]2)cc(-c2nnn[nH]2)c1`, the MIC in [1], in test [3] and in [4] was 125 to 1000 µg/mL (≈ 584 to 4670 µM) each time.

Consider `Cc1ccc2c(c1)cc(/C=C/C(=O)c1ccc(Cl)cc1)c1nnnn12`, for which the MIC in test [1], in test [3], in [4], in [5] and in test [6] was 6.25 to 100 µg/mL (≈ 17.9 to 287 µM) throughout.

As to `Cc1ccc2c(c1)cc(C1CC(c3ccc(Cl)cc3)=NN1C(N)=S)c1nnnn12` (stereo not drawn), the MIC in test [1], in test [3], in test [4], in test [5] and in test [6] was 3.12 to 100 µg/mL (≈ 7.41 to 237 µM) each time.

Turning to `Cc1ccc2c(c1)cc(/C=C/C(=O)c1ccccn1)c1nnnn12`, the MIC in test [1], in [3], in [4], in test [5] and in [6] was 6.25 to 100 µg/mL (≈ 19.8 to 317 µM) throughout.

As to `Cc1ccc2c(c1)cc(C1CC(c3ccccn3)=NN1C(N)=S)c1nnnn12` (stereo not drawn), the MIC in [1], in test [3], in [4], in test [5] and in test [6] was 3.12 to 100 µg/mL (≈ 8.04 to 257 µM) each time.

In the case of `Cc1ccc2c(=O)c(OCc3nnn[nH]3)c(-c3ccc(F)cc3)oc2c1`, the MIC in [1], in test [3], in [4] and in test [2] was 50 to 400 µg/mL (≈ 142 to 1140 µM) in each case.

Turning to `O=C1S/C(=C\c2ccc(F)cc2)C(=O)N1Cc1ccc(-c2ccccc2-c2nnn[nH]2)cc1`, the MIC in test [1] and in test [2] was 7.75 to 35.4 µg/mL (≈ 16.9 to 77.4 µM) throughout.

In the case of `Fc1ccc2c(c1)sc1nc(-c3cc4ccccc4n4nnnc34)c(NCCc3ccccc3)n12`, the MIC in test [1], in test [3] and in [4] was more than 320 µg/mL throughout.

For the compound `Cc1ccc2c(c1)cc(C1CC(c3ccccc3)=NN1C(N)=S)c1nnnn12` (stereo not drawn), the MIC in test [1], in test [3], in [4], in test [5] and in [6] was 3.12 to 100 µg/mL (≈ 8.07 to 258 µM) in each case.

On to `c1ccc(C(c2ccccc2)(c2ccccc2)n2nnnc2-c2ccccc2-c2ccc(CNn3cnnc3)cc2)cc1`, for which the values for the MIC in [1] and in [2] were 22.4 µg/mL (≈ 40 µM) and 24.8 µg/mL (≈ 44.3 µM), respectively.

As for `Cc1ccc2c(c1)cc(/C=C/C(=O)c1ccccc1)c1nnnn12`, the MIC in test [1], in test [3], in test [4], in test [5] and in test [6] was 6.25 to 100 µg/mL (≈ 19.9 to 318 µM) in each case.

As for `COc1ccc(Nc2c(-c3cc4ccccc4n4nnnc34)nc3sccn23)cc1`, the MIC in test [1], in test [3] and in test [4] was more than 320 µg/mL each time.

Take `COc1cc(/C=C2\SC(=O)N(Cc3ccc(-c4ccccc4-c4nnn[nH]4)cc3)C2=O)cc(OC)c1OC`: the MIC in test [1] and in [2] was 7.75 to 35.4 µg/mL (≈ 14.6 to 66.9 µM) throughout.

Turning to `O=C1S/C(=C\c2ccccc2Cl)C(=O)N1Cc1ccc(-c2ccccc2-c2nnn[nH]2)cc1`, the MIC in [1] and in [2] was 7.75 to 35.4 µg/mL (≈ 16.4 to 74.7 µM) each time.

`Cc1ccc2c(c1)cc(C1CC(c3cccs3)=NN1C(N)=S)c1nnnn12` (stereo not drawn): the MIC in test [1], in test [3], in test [4], in [5] and in test [6] was 3.12 to 100 µg/mL (≈ 7.94 to 254 µM) each time.

With `c1ccc(CCNc2c(-c3cc4ccccc4n4nnnc34)nc3sccn23)cc1`, the MIC in test [1], in [3] and in [4] was more than 320 µg/mL in each case.

Regarding `CC(=O)N1N=C(Cn2cc(-c3nn(-c4ccncc4)cc3-c3nnnn3-c3ccccc3)c3cc(Cl)ccc32)OC1(C)c1ccc(C(F)(F)F)cc1` (stereo not drawn), the zone of inhibition at 250 µg/mL in [7], in test [8], in [9], in test [10], in test [11] and in test [12] was 8 to 20 mm each time.

As to `Cc1ccc2c(c1)cc(/C=C/C(=O)c1cccs1)c1nnnn12`, the MIC in test [1], in [3], in test [4], in test [5] and in test [6] was 6.25 to 100 µg/mL (≈ 19.5 to 312 µM) throughout.

Consider `COc1ccc(Nc2c(-c3cc4ccccc4n4nnnc34)nc3sc(C#N)cn23)cc1`, for which the MIC in test [1], in [3] and in test [4] was more than 320 µg/mL each time.

Consider `Cc1cccc2oc(-c3ccc(F)cc3)c(OCc3nnn[nH]3)c(=O)c12`, for which the MIC in test [1], in [3], in [4] and in test [2] was 50 to 400 µg/mL (≈ 142 to 1140 µM) each time.

Regarding `CC(C)(C)Nc1c(-c2cc3ccccc3n3nnnc23)nc2sccn12`, the MIC in test [1], in [3] and in test [4] was more than 320 µg/mL in each case.

Turning to `COc1cc(/C=C2\SC(=O)N(Cc3ccc(-c4ccccc4-c4nnn[nH]4)cc3)C2=O)cc(OC)c1`, the MIC in [1] and in test [2] was 7.75 to 35.4 µg/mL (≈ 15.5 to 70.9 µM) throughout.

For the compound `N#Cc1cn2c(NCCc3ccccc3)c(-c3cc4ccccc4n4nnnc34)nc2s1`, the MIC in test [1], in [3] and in [4] was more than 320 µg/mL throughout.

For `Cc1ccc2cc(C3CC(c4ccccc4)=NN3C(N)=S)c3nnnn3c2c1` (stereo not drawn), the MIC in test [1], in test [3], in [4], in [5] and in test [6] was 3.12 to 100 µg/mL (≈ 8.07 to 258 µM) each time.

As for `Cc1ccc2cc(/C=C/C(=O)c3ccccc3)c3nnnn3c2c1`, the MIC in test [1], in test [3], in [4], in test [5] and in test [6] was 6.25 to 100 µg/mL (≈ 19.9 to 318 µM) each time.

On to `Cc1ccc2cc(C3CC(c4ccccn4)=NN3C(N)=S)c3nnnn3c2c1` (stereo not drawn), for which the MIC in test [1], in test [3], in test [4], in test [5] and in test [6] was 3.12 to 100 µg/mL (≈ 8.04 to 257 µM) throughout.

As to `c1ccc2c(c1)cc(-c1nc3sccn3c1NC1CCCCC1)c1nnnn12`, the minimum inhibitory concentration (MIC) in test [1], in [3] and in test [4] was more than 320 µg/mL in each case.

As to `COc1ccc(C(=O)/C=C/c2cc3ccc(C)cc3n3nnnc23)cc1`, the MIC in test [1], in test [3], in [4], in [5] and in [6] was 6.25 to 100 µg/mL (≈ 18.1 to 290 µM) in each case.

With `CC(C)(C)Nc1c(-c2cc3ccccc3n3nnnc23)nc2sc(C#N)cn12`, the minimum inhibitory concentration (MIC) in [1], in test [3] and in test [4] was more than 320 µg/mL in each case.

With `O=c1c(OCc2nnn[nH]2)c(-c2ccc(F)cc2)oc2cc(Cl)cc(Cl)c12`, the MIC in [1], in test [3], in test [4] and in test [2] was 50 to 400 µg/mL (≈ 123 to 982 µM) throughout.

As for `N#Cc1cn2c(NC3CCCCC3)c(-c3cc4ccccc4n4nnnc34)nc2s1`, the MIC in test [1], in test [3] and in test [4] was more than 320 µg/mL throughout.

For `COc1ccc(/C=C2\SC(=O)N(Cc3ccc(-c4ccccc4-c4nnn[nH]4)cc3)C2=O)cc1OC`, the MIC in test [1] and in [2] was 7.75 to 35.4 µg/mL (≈ 15.5 to 70.9 µM) throughout.

In the case of `O=C1S/C(=C\c2ccc(Cl)cc2)C(=O)N1Cc1ccc(-c2ccccc2-c2nnn[nH]2)cc1`, the MIC in test [1] and in test [2] was 7.75 to 35.4 µg/mL (≈ 16.4 to 74.7 µM) each time.

Regarding `Cc1ccc2cc(C3CC(c4cccs4)=NN3C(N)=S)c3nnnn3c2c1` (stereo not drawn), the minimal inhibitory concentration (MIC) in test [1], in [3], in test [4], in test [5] and in test [6] was 3.12 to 100 µg/mL (≈ 7.94 to 254 µM) in each case.

In the case of `Cc1ccc2cc(/C=C/C(=O)c3ccccn3)c3nnnn3c2c1`, the MIC in test [1], in [3], in test [4], in test [5] and in test [6] was 6.25 to 100 µg/mL (≈ 19.8 to 317 µM) throughout.

As to `COc1ccc(C(=O)/C=C/c2cc3cc(C)ccc3n3nnnc23)cc1`, the MIC in test [1], in test [3], in test [4], in [5] and in [6] was 6.25 to 100 µg/mL (≈ 18.1 to 290 µM) in each case.

`Cc1ccc2cc(/C=C/C(=O)c3ccc(Cl)cc3)c3nnnn3c2c1`: the MIC in test [1], in test [3], in test [4], in test [5] and in [6] was 6.25 to 100 µg/mL (≈ 17.9 to 287 µM) each time.

As to `COc1cc(Cc2cnc(N)nc2N)cc(OC)c1OC` [TRIMETHOPRIM], the MIC (as a rule, the smallest concentration in the dilution series that meets the test's criterion for growth inhibition) was 125 µg/mL (≈ 431 µM) in test [1], 500 µg/mL (≈ 1720 µM) in test [3] and 250 µg/mL (≈ 861 µM) in [4].
